Data: patent publication US11680086B2, “Lipopeptide for potently inhibiting HIV, derivative thereof, pharmaceutical composition thereof and use thereof” (Institute of Pathogen Biology, Chinese Academy of Medical …, priority 2017, dated 2023)
Where two headings read alike, the source gives them in different places. Peptide text beside a SMILES is read from it. * marks the point of attachment. Palmitoyl = CCCCCCCCCCCCCCCC(=O)*

Columns and labels:
[1] = circular dichroism secondary structure analysis of the inhibitors themselves; type: physicochemical; settings: 10 μM, 20 μM and 40 μM in PBS
Procedure: (§1) The circular dichroism spectrophotometer was Jasco-815 by JASCO Inc., and the assay method was referred to the papers published by the inventors (see the References 18 and 30 listed in the Background Art). […] The N39 and an inhibitor were separately dissolved in a phosphate buffered saline (PBS) to prepare a PBS solution (pH 7.2) of a concentration of 20 μM. The N39 was mixed with an inhibitor at a volume ratio of 1:1 (final concentration of 10 μM for each), the mixed sample was placed at 37° C. for 30 minutes to fully react, and then the helix content and Tm value of the resultant complex were measured by the circular dichroism spectrophotometer. The scan wavelength range of the device was 195-260 nm with a wavelength interval of 1 nm, and the values measured by scanning for three times were averaged. Based on the CD signals, the interaction between the polypeptides and the helix content were determined. Then, the sample for CD signal measurement was transferred to the temperature scanning sample cell, the program of the CD device was set to temperature scanning with a detection wavelength of 220 nm and scanning range of 20-98° C., and the program scan was performed to obtain the curve of the CD signals vs temperature, based on which the Tm value was calculated. Based on the Tm value, the stability of the formed helical structure of the inhibitor and N39 was judged.
For easy analysis, the α-helix content and the Tm value of the inhibitors were measured at concentrations of 10 μM, 20 μM, and 40 μM (PBS solution), respectively.

[2] = system: 35 HIV-1 pseudoviruses (subtypes A, B, B', C, G, A/C, A/E, B/C); settings: for IC50: read-out: average IC50 for inhibition of various types of HIV-1 pseudoviruses, average over 35 pseudoviruses
Excerpt: HIV-1 pseudovirus-mediated cell entry inhibition assay: basic steps included: (1) Preparation of HIV-1 pseudovirus: the 293T cells were co-transfected with a plasmid expressing the envelope protein (Env) of HIV-1 strain NL4-3 (i.e., a recombinant expression plasmid obtained by inserting the gene encoding the envelope protein (ENV) of the D36G mutant of the HIV-1 strain NL4-3 in the Table 2 of the Reference 14 listed in the Background Art into the vector pcDNA3.1(−)) and the HIV-1 backbone plasmid pSG3Δenv (provided by the AIDS Reagent Program of National Institutes of Health (NIH), catalog number: 11051) by using a cell transfection reagent, incubated in a cell incubator of 37° C. and 5% CO2 for 6 hours, and then the medium was changed, and the cells were further incubated for 48 hours. The cell culture supernatant containing pseudovirus particles was pipetted and filtered with a 0.45 μm filter to collect the supernatant, then 20% fetal bovine serum (FBS) was added thereto, the final solution was transferred to a polypropylene tube, and stored at −80° C. for ready for use or directly subjected to virus titration. (2) Titration of HIV-1 pseudovirus: the viruses were diluted by 5 folds in a 96-well plate, and 4 replicate wells with 8 gradients were set to a final volume of 100 microliters. The TZM-b1 cells were trypsinized and counted, and the cells were diluted to 1×10^5 cells/ml with DMEM complete medium; 100 μl of cells dilution (containing 15 μg/ml DEAE-dextran) per well were added and cultured at 37° C. and 5% CO2 for 48 hours. The 96-well plate was then taken from the cell culture incubator. The supernatant was discarded from the wells. To each well, 30 μl of a cell lysate was added, and after 10 minutes, 100 μl of a luciferase detection reagent was added. 100 μl of liquid was pipetted from each well and added to a corresponding 96-well white plate, and the luminescence values were read by a microplate photometer. The virus titer was calculated by the Reed-Muench method. (3) Antiviral activity assay: the test substance was dissolved in DMSO and diluted with a cell culture solution by 3 folds, and placed in a 96-well plate at a final volume of […]. 50 μl of a DMEM medium was used in place of the test substance as a negative control. To each well, 100 μl of TZM-b1 target cells solution (containing 15 μg/ml DEAE-dextran) at a concentration of 1×10^5 cells/ml was added, and then 50 μl (corresponding to 100 TCID50 per well) of the HIV-1 pseudovirus obtained above was added. After incubation at 37° C. and 5% CO2 for 48 hours, the relative light units (RLU) of each well were determined by using a luciferase detection reagent (Promega). Inhibition rate (%) and IC50 value were calculated.
Among them, the A, B and C subtypes were the main viruses causing AIDS epidemic in the world, while B/C and A/E recombinant viruses were the main viruses in China. […] Among the Env expression plasmids used for the preparation of pseudoviral, except that the Env expression plasmids used for preparation of PVO, Du156 and CAP 210.2.00.E8 were obtained from the AIDS Reagent Program of NIH in the United states, other plasmids were preserved by the laboratory of Prof. He Yuxian, Institute of Pathogen Biology, Chinese Academy of Medical Sciences, please see the References 13, 14 and 18 listed in the Background Art and articles of Chong et al. (Chong H, Yao X, Zhang C, Cai L, Cui S, Wang Y, He Y. Biophysical property and broad anti-HIV activity of Albuvirtide, a 3-maleimimidoproprotionic acid-modified peptide fusion inhibitor. PLoS One, 2012; 7 (3): e 32599). The preparation of the pseudovirus and the antiviral assay were the same as those in Example 2.1 of Example 2 (HIV-1 pseudovirus-mediated cell entry inhibition assay).

[3] = system: HIV-2 strain ROD (infectious); test: inhibition of HIV-2; type: cell-based; settings: HIV-2 ROD
Procedure: (§2) Inhibition rate (%) and IC50 value were calculated.
(§3) In order to further reflect the antiviral advantages of the potent lipopeptides of the present invention, their inhibitory activity against HIV-2 and SIV was determined in the example. The methods of antiviral activity assays used were described in the literatures published by the present inventors (see the References 13 and 30 listed in the Background Art). The molecular cloning plasmid pROD of the HIV-2 strain ROD (HIV-2ROD) was kindly provided by Professor Nuno Taveira from the University of Lisbon, Portugal, and the plasmids expressing the SIV strain SIVpbj (SIVPBJ) and SIV239 envelope proteins (pSIVpbj-Env and pSIV239, respectively) were kindly provided by Professor Xu Jianqing from the Fudan University. The preparation of the infectious ROD was the same as that of the infectious JRCSF in the above section 2.1, and the pseudoviruses SIVpbj and SIV239 were prepared by a method same as that described in the above Examples 2 and 3.

HIV-1 strain JRCSF = type: cell-based
Procedure: as §2

[4] = system: HIV-1 strain NL4-3 pseudovirus (D36G mutant); type: cell-based
Procedure: (§4) The supernatant was discarded from the wells. […] Inhibition rate (%) and IC50 value were calculated.

[5] = system: SIV pseudoviruses SIVpbj and SIV239; test: inhibition of SIV pseudoviruses; type: cell-based
Procedure: as §4, §3

[6] = system: HXB2-mediated cell fusion (HL2/3 effector cells, TZM-b1 target cells); type: cell-based, HIV-1
Procedure: HIV-1 mediated cell fusion inhibition assay: the effector cells (HL2/3 cells) and target cells (TZM-b1 cells) were provided by the AIDS Reagent Program of National Institutes of Health (NIH) (catalog numbers: 1294 and 8129, respectively). The both cells were adherent cells and were cultured in a DMEM cell culture medium containing ampicillin/streptomycin double antibiotics and 10% fetal bovine serum (FBS). The TZM-b1 was first added to a 96-well cell culture plate (1×10^4 cells/well), and cultured overnight at 37° C. and 5% CO2. The test substance was diluted with the DMEM cell culture medium by 3 folds and mixed with HL2/3 effector cells (3×10^4 cells/well), then added to the TZM-b1 target cells, and further cultured for 6 hours to fully fuse. The activity of luciferase (relative fluorescence units, RLU) was then determined using a luciferase reporter gene kit from Promega company according to the instructions. The inhibition rate of each sample at each concentration was calculated, and the half effective inhibitory concentration (IC50 value) was calculated using GraphPad Prism Software 2.01.

[7] = system: NL4-3 pseudovirus carrying T-20 resistance mutation site of NHR; test: inhibition of T-20 resistant strains; type: cell-based, HIV-1; settings: strains with single or double mutations
[8] = biological target: N39 (NHR-derived polypeptide of gp41) (Human immunodeficiency virus type 1 group M subtype B, UniProt P04578); type: binding, HIV-1; settings: 10 μM each, PBS pH 7.2
Procedure: as §1

NL4-3WT pseudovirus = settings: wild type NL4-3WT
Excerpt: HIV-1 pseudovirus-mediated cell entry inhibition assay: basic steps included: (1) Preparation of HIV-1 pseudovirus: the 293T cells were co-transfected with a plasmid expressing the envelope protein (Env) of HIV-1 strain NL4-3 (i.e., a recombinant expression plasmid obtained by inserting the gene encoding the envelope protein (ENV) of the D36G mutant of the HIV-1 strain NL4-3 in the Table 2 of the Reference 14 listed in the Background Art into the vector pcDNA3.1(−)) and the HIV-1 backbone plasmid pSG3Δenv (provided by the AIDS Reagent Program of National Institutes of Health (NIH), catalog number: 11051) by using a cell transfection reagent, incubated in a cell incubator of 37° C. and 5% CO2 for 6 hours, and then the medium was changed, and the cells were further incubated for 48 hours. The cell culture supernatant containing pseudovirus particles was pipetted and filtered with a 0.45 μm filter to collect the supernatant, then 20% fetal bovine serum (FBS) was added thereto, the final solution was transferred to a polypropylene tube, and stored at −80° C. for ready for use or directly subjected to virus titration. […] The TZM-b1 cells were trypsinized and counted, and the cells were diluted to 1×10^5 cells/ml with DMEM complete medium; 100 μl of cells dilution (containing 15 μg/ml DEAE-dextran) per well were added and cultured at 37° C. and 5% CO2 for 48 hours. […]

[9] = system: HIV-1 strain NL4-3 (NL4-3D36G); test: antiviral activity in serum of macaque after subcutaneous injection; type: in vivo, macaques (rhesus monkeys); settings: 3 mg/kg subcutaneous
Procedure: The specific method was as follows: 6 experimental macaques (rhesus monkeys) were selected, half male and half female, aged 3-4 years old, weighing 3.4-4.7 kg. […] The serum was separated according to a conventional method. The injection interval of each inhibitor was more than 2 weeks to ensure that there was no residue of the previous analyte. The serum activity against the HIV-1 strain NL4-3 (NL4-3D36G) was measured according to the experimental method of the pseudovirus-based assay in the above examples. The serum was diluted by 3 folds. […] Therefore, the lipopeptides of the present invention were not only potent but also were long-lasting effective.

Chain of N39 (NHR-derived polypeptide of gp41) (P04578 528-566): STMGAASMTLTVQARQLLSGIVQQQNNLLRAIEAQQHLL

CCCCCCCCCCCCCCCC(=O)NCCCC[C@H](NC(=O)[C@H](CCC(=O)O)NC(=O)[C@H](CC(C)C)NC(=O)[C@H](CCCCN)NC(=O)[C@H](CCCCN)NC(=O)[C@H](CC(C)C)NC(=O)[C@H](CCC(=O)O)NC(=O)[C@H](CCC(=O)O)NC(=O)[C@H](CCC(=O)O)NC(=O)[C@H](CC(N)=O)NC(=O)[C@H](CCCCN)NC(=O)[C@H](CCCCN)NC(=O)[C@H](CCC(N)=O)NC(=O)[C@H](CCC(N)=O)NC(=O)[C@H](CCC(=O)O)NC(=O)[C@H](CCC(=O)O)NC(=O)[C@H](CO)NC(=O)[C@H](CCCCN)NC(=O)[C@H](CCCCN)NC(=O)[C@@H](NC(=O)[C@H](CC(C)C)NC(=O)[C@H](CCC(=O)O)NC(=O)[C@H](CCC(=O)O)NC(=O)[C@@H](NC(=O)[C@H](CC(C)C)NC(=O)[C@H](CO)NC(=O)[C@@H](NC(=O)[C@H](Cc1ccc(O)cc1)NC(C)=O)[C@@H](C)O)[C@@H](C)CC)[C@@H](C)CC)C(N)=O [LP-50] (Ac-YTSLIEELIKKSEEQQKKNEEELKKLEK(Palmitoyl)-NH2)
secondary structure of the inhibitor itself (in words) [1]: distinct helical structure
IC50 [2]: 0.041 nM
inhibitory activity against different subtypes of HIV-1 as folds of T-20 ([2]; relative to T-20, from average IC50): 1010 folds
inhibitory activity against HIV-2 (in words) [3]: extremely potent inhibitory activity
inhibitory activity as folds of that of T-20 (HIV-1 strain JRCSF; JRCSF replication, relative to T-20): 226 folds
IC50 (HIV-1 strain JRCSF; Replication of JRCSF, read-out: IC50 for inhibiting replicative virus): 0.023 nM
inhibitory activity as folds of that of LP-40 (HIV-1 strain JRCSF; replicative virus, relative to LP-40): 12 folds
IC50 ([4]; Entry of NL4-3 (D36G), read-out: IC50 for inhibiting pseudovirus): 0.007 nM
inhibitory activity as folds of that of T-20 ([4]; NL4-3 pseudovirus entry, relative to T-20): 1345 folds
inhibitory activity as folds of that of LP-40 ([4]; pseudovirus, relative to LP-40): 63 folds
inhibitory activity against SIV (in words) [5]: extremely potent inhibitory activity
IC50 ([6]; HXB2-cell fusion, read-out: IC50 for inhibiting cell fusion): 0.021 nM
inhibitory activity as folds of that of T-20 ([6]; HXB2-mediated cell fusion, relative to T-20): 1151 folds
inhibitory activity as folds of that of LP-40 ([6]; cell fusion, relative to LP-40): 20 folds
inhibitory activity against T-20 resistant strains (in words) [7]: further improved by hundreds or even thousands of folds
Tm value of the complex with N39 [8]: 63.3 °C

enfuvirtide
IC50 (NL4-3WT pseudovirus): 152 nM
secondary structure of the inhibitor itself (in words) [1]: irregular disorder structure
IC50 [2]: 41.4 nM
inhibitory activity against HIV-2 (in words) [3]: extremely weak
IC50 ([4]; NL4-3D36G mutant, Example 4, read-out: IC50): 13.7 nM
maximum serum dilution multiple for inhibiting 50% of NL4-3 infectivity ([9]; 2 hour after injection): 45 folds
maximum serum dilution multiple for inhibiting 50% of NL4-3 infectivity ([9]; 4 hour after injection): 46 folds
inhibitory activity against SIV (in words) [5]: extremely weak
inhibitory activity against T-20 resistant strains (in words) [7]: significantly increased by several folds
helix content of the complex with N39 [8]: 48.6%
